In PubChem BioAssay AID1259407 (Chemical Carcinogenesis Research Information System (CCRIS), 2018):
Calls of active or inactive are those of the source. How the calls were made is not given here.

Tested on: CCRIS mutagenicity, Ames/micronucleus/aberration tests
Assay: CCRIS mutagenicity studies
[1] = Test System: AMES SALMONELLA TYPHIMURIUM, Strain/Indicator: TA98, Metabolic Activation: NONE, Method: STANDARD PLATE
[2] = Test System: AMES SALMONELLA TYPHIMURIUM, Strain/Indicator: TA98, Metabolic Activation: RAT, LIVER, S-9, AROCLOR 1254, Method: STANDARD PLATE
[3] = Test System: AMES SALMONELLA TYPHIMURIUM, Strain/Indicator: TA100, Metabolic Activation: NONE, Method: PREINCUBATION
[4] = Test System: AMES SALMONELLA TYPHIMURIUM, Strain/Indicator: TA100, Metabolic Activation: NONE, Method: STANDARD PLATE
[5] = Test System: AMES SALMONELLA TYPHIMURIUM, Strain/Indicator: TA100, Metabolic Activation: RAT, LIVER, S-9, AROCLOR 1254, Method: STANDARD PLATE
[6] = Test System: AMES SALMONELLA TYPHIMURIUM, Strain/Indicator: TA1535, Metabolic Activation: NONE, Method: STANDARD PLATE
[7] = Test System: AMES SALMONELLA TYPHIMURIUM, Strain/Indicator: TA1535, Metabolic Activation: RAT, LIVER, S-9, AROCLOR 1254, Method: STANDARD PLATE
[8] = Test System: MOUSE LYMPHOMA, Strain/Indicator: L5178Y (TK+/TK-), Metabolic Activation: NONE, Method: SUSPENSION/PLATE
[9] = Test System: AMES SALMONELLA TYPHIMURIUM, Strain/Indicator: TA97, Metabolic Activation: NONE, Method: STANDARD PLATE
[10] = Test System: AMES SALMONELLA TYPHIMURIUM, Strain/Indicator: TA97, Metabolic Activation: RAT, LIVER, S-9, AROCLOR 1254, Method: STANDARD PLATE

Compound: O=C(CBr)c1ccccc1
- mutagenic call (Test System: AMES SALMONELLA TYPHIMURIUM, Strain/Indicator: TA98, Metabolic Activation: HAMSTER, LIVER, S-9, AROCLOR 1254, Method: STANDARD PLATE): inactive; negative
- mutagenic call (Test System: AMES SALMONELLA TYPHIMURIUM, Strain/Indicator: TA98, Metabolic Activation: NONE, Method: PREINCUBATION): inactive; negative
- mutagenic call [1]: inactive; negative
- mutagenic call [2]: inactive; negative
- mutagenic call (Test System: AMES SALMONELLA TYPHIMURIUM, Strain/Indicator: TA98, Metabolic Activation: RAT, LIVER, S-9, PCB, Method: PREINCUBATION): inactive; negative
- mutagenic call (Test System: AMES SALMONELLA TYPHIMURIUM, Strain/Indicator: TA100, Metabolic Activation: HAMSTER, LIVER, S-9, AROCLOR 1254, Method: STANDARD PLATE): inactive; negative
- mutagenic call [3]: inactive; negative
- mutagenic call [4]: inactive; negative
- mutagenic call [5]: inactive; negative
- mutagenic call (Test System: AMES SALMONELLA TYPHIMURIUM, Strain/Indicator: TA100, Metabolic Activation: RAT, LIVER, S-9, PCB, Method: PREINCUBATION): inactive; negative
- mutagenic call (Test System: AMES SALMONELLA TYPHIMURIUM, Strain/Indicator: TA1535, Metabolic Activation: HAMSTER, LIVER, S-9, AROCLOR 1254, Method: STANDARD PLATE): inactive; negative
- mutagenic call [6]: inactive; negative
- mutagenic call [7]: inactive; negative
- mutagenic call (Test System: AMES SALMONELLA TYPHIMURIUM, Strain/Indicator: TA1537, Metabolic Activation: HAMSTER, LIVER, S-9, AROCLOR 1254, Method: STANDARD PLATE): inactive; negative
- mutagenic call (Test System: AMES SALMONELLA TYPHIMURIUM, Strain/Indicator: TA1537, Metabolic Activation: NONE, Method: STANDARD PLATE): inactive; negative
- mutagenic call (Test System: AMES SALMONELLA TYPHIMURIUM, Strain/Indicator: TA1537, Metabolic Activation: RAT, LIVER, S-9, AROCLOR 1254, Method: STANDARD PLATE): inactive; negative
- mutagenic call (Test System: AMES SALMONELLA TYPHIMURIUM, Strain/Indicator: TA1538, Metabolic Activation: HAMSTER, LIVER, S-9, AROCLOR 1254, Method: STANDARD PLATE): inactive; negative
- mutagenic call (Test System: AMES SALMONELLA TYPHIMURIUM, Strain/Indicator: TA1538, Metabolic Activation: NONE, Method: STANDARD PLATE): inactive; negative
- mutagenic call (Test System: AMES SALMONELLA TYPHIMURIUM, Strain/Indicator: TA1538, Metabolic Activation: RAT, LIVER, S-9, AROCLOR 1254, Method: STANDARD PLATE): inactive; negative
- mutagenic call (Test System: E. COLI, Strain/Indicator: WP2 UVRA, Metabolic Activation: NONE, Method: PREINCUBATION): inactive; negative
- mutagenic call [8]: inactive; negative. reevaluation of results: negative
- mutagenic call (Test System: MOUSE LYMPHOMA, Strain/Indicator: L5178Y (TK+/TK-), Metabolic Activation: RAT, LIVER, S-9, AROCLOR 1254, Method: SUSPENSION/PLATE): active; positive. reevaluation of results: inconclusive

Compound: CC(=O)N(O)c1ccccc1
- mutagenic call [1]: inactive; negative
- mutagenic call [2]: inactive; negative
- mutagenic call [4]: inactive; negative
- mutagenic call [5]: inactive; negative

Compound: Nc1ncnc2nc[nH]c12
- mutagenic call [9]: inactive; negative
- mutagenic call [10]: inactive; negative
- mutagenic call [1]: inactive; negative
- mutagenic call [2]: active; positive
- mutagenic call [4]: inactive; negative
- mutagenic call [5]: inactive; negative

Compound: COc1cccc2c1C(=O)c1c(O)c3c(c(O)c1C2=O)C[C@@](O)(C(C)=O)C[C@@H]3O[C@H]1C[C@H](NCc2ccccc2)[C@H](O)[C@H](C)O1
- mutagenic call (Test System: UDS RAT HEPATOCYTES, Strain/Indicator: THY INCORP, Metabolic Activation: NONE, Method: AUTOMATIC COLONY COUNTER): active; positive

Compound: CC(C)(C)NCC(O)COc1cccc2c1CCCC2=O (stereo not given)
- mutagenic call [1]: inactive; negative
- mutagenic call [2]: inactive; negative
- mutagenic call [4]: inactive; negative
- mutagenic call [5]: inactive; negative

Compound: O=[N+]([O-])c1ccc(Oc2ccc(Cl)cc2Cl)cc1
- mutagenic call (Test System: AMES SALMONELLA TYPHIMURIUM, Strain/Indicator: TA98, Metabolic Activation: S-9, Method: STANDARD PLATE): inactive; negative
- mutagenic call [4]: active; positive
- mutagenic call (Test System: AMES SALMONELLA TYPHIMURIUM, Strain/Indicator: TA100, Metabolic Activation: S-9, Method: STANDARD PLATE): inactive; negative
- mutagenic call (Test System: AMES SALMONELLA TYPHIMURIUM, Strain/Indicator: TA100, Metabolic Activation: S-9 MIX, Method: STANDARD PLATE): active; positive
- mutagenic call (Test System: AMES SALMONELLA TYPHIMURIUM, Strain/Indicator: YG1021, Metabolic Activation: S-9, Method: STANDARD PLATE): inactive; negative
- mutagenic call (Test System: AMES SALMONELLA TYPHIMURIUM, Strain/Indicator: YG1024, Metabolic Activation: S-9, Method: STANDARD PLATE): inactive; negative
- mutagenic call (Test System: AMES SALMONELLA TYPHIMURIUM, Strain/Indicator: YG1026, Metabolic Activation: S-9, Method: STANDARD PLATE): active; positive
- mutagenic call (Test System: AMES SALMONELLA TYPHIMURIUM, Strain/Indicator: YG1029, Metabolic Activation: S-9, Method: STANDARD PLATE): active; positive
- mutagenic call (Test System: E. COLI, Strain/Indicator: WP2 UVRA, Metabolic Activation: HAMSTER, LIVER, S-9, AROCLOR 1254, Method: STANDARD PLATE): inactive; negative
- mutagenic call (Test System: E. COLI, Strain/Indicator: WP2 UVRA, Metabolic Activation: HAMSTER, LIVER, S-9, Method: STANDARD PLATE): inactive; negative
- mutagenic call (Test System: E. COLI, Strain/Indicator: WP2 UVRA, Metabolic Activation: MOUSE, LIVER, S-9, AROCLOR 1254, Method: STANDARD PLATE): inactive; negative
- mutagenic call (Test System: E. COLI, Strain/Indicator: WP2 UVRA, Metabolic Activation: MOUSE, LIVER, S-9, Method: STANDARD PLATE): inactive; negative
- mutagenic call (Test System: E. COLI, Strain/Indicator: WP2 UVRA, Metabolic Activation: NONE, Method: STANDARD PLATE): inactive; negative
- mutagenic call (Test System: E. COLI, Strain/Indicator: WP2 UVRA, Metabolic Activation: RAT, LIVER, S-9, AROCLOR 1254, Method: STANDARD PLATE): inactive; negative
- mutagenic call (Test System: E. COLI, Strain/Indicator: WP2 UVRA, Metabolic Activation: RAT, LIVER, S-9, Method: STANDARD PLATE): inactive; negative
- mutagenic call (Test System: MOUSE LYMPHOMA, Strain/Indicator: L5178Y (HPRT), Metabolic Activation: NONE, Method: SUSPENSION/PLATE): inactive; negative
- mutagenic call [8]: inactive; negative

Compound: COCC12OOC1(C)c1ccccc1O2 (stereo not given)
- mutagenic call [3]: active; positive

Compound: O=C1OCC(Br)=C1Br
- mutagenic call [4]: active; positive

Compound: CC(C)CCC[C@@H](C)[C@H]1CC[C@H]2[C@@H]3C[C@@H](O)[C@@]4(O)C[C@@H](O)CC[C@]4(C)[C@H]3CC[C@]12C
- mutagenic call [9]: active; positive
- mutagenic call [10]: inactive; negative
- mutagenic call [1]: active; positive
- mutagenic call [2]: inactive; negative
- mutagenic call [4]: active; positive
- mutagenic call [5]: inactive; negative
- mutagenic call (Test System: AMES SALMONELLA TYPHIMURIUM, Strain/Indicator: TA102, Metabolic Activation: NONE, Method: STANDARD PLATE): active; positive
- mutagenic call (Test System: AMES SALMONELLA TYPHIMURIUM, Strain/Indicator: TA102, Metabolic Activation: RAT, LIVER, S-9, AROCLOR 1254, Method: STANDARD PLATE): inactive; negative
- mutagenic call [6]: active; positive
- mutagenic call [7]: active; positive
- mutagenic call (Test System: CHINESE HAMSTER V-79, Strain/Indicator: V-79/8-AZAGUANINE, Metabolic Activation: NONE): active; positive
- mutagenic call (Test System: CHINESE HAMSTER V-79, Strain/Indicator: V-79/OUABAIN, Metabolic Activation: NONE): inactive; negative
- mutagenic call (Test System: IN VITRO CHROMOSOMAL ABERRATIONS, Strain/Indicator: CHINESE HAMSTER OVARY EPITHELIAL (CHO-K1) CELLS, Metabolic Activation: NONE): active; positive (structural changes)
- mutagenic call (Test System: IN VITRO CHROMOSOMAL ABERRATIONS, Strain/Indicator: CHINESE HAMSTER OVARY EPITHELIAL (CHO-K1) CELLS, Metabolic Activation: RAT, LIVER, S-9, AROCLOR 1254): active; positive (structural changes); lower response in presence of s-9
